From patent US20240376052A1, “N-SUBSTITUTED INDOLE DERIVATIVES AS SEROTONERGIC AGENTS USEFUL FOR THE TREATMENT OF DISORDERS RELATED THERETO” (Mindset Pharma Inc., priority 2021, published 2024)
Like-named read-outs stand apart in the source and are kept apart here.

How the values were obtained:
[1] = target: human 5-HT2A receptor (Homo sapiens (Human), UniProt P28223); assay: Human 5-HT2A radioligand binding assay ([3H]-ketanserin)
[2] = Liver microsomes stability, mouse; details: for Remaining Percentage (%): Mouse
Protocol: (§1) The objective of this study was to estimate in vitro metabolic stability of representative compounds of the application in pooled human and male mouse liver microsomes. The concentrations of parent compounds in reaction systems were evaluated by LC-MS/MS for estimating the stability in pooled human and male mouse liver microsomes. The in vitro intrinsic clearances of test compounds were determined as well.
(§2) A master solution in the “Incubation Plate” containing phosphate buffer, ultra-pure H2O, MgCl2 solution and liver microsomes was made according to Table 3. The mixture was pre-warmed at 37° C. water bath for 5 minutes.
(§3) 40 μL of 10 mM NADPH solution was added to each well. The final concentration of NADPH was 1 mM. The negative control samples were prepared by replacing NADPH with 40 μL of ultra-pure H2O. Samples were prepared in duplicate. Negative controls were prepared in singlet.
(§4) The reaction was started with the addition of 4 μL of 200 μM test compounds or control compounds to each master solution to get the final concentration of 2 μM. This study was performed in duplicate.
(§5) Aliquots of 50 μL were taken from the reaction solution at 0, 15, 30, 45 and 60 minutes. The reaction solutions were stopped by the addition of 4 volumes of cold methanol with IS (100 nM alprazolam, 200 nM imipramine, 200 nM labetalol and 2 μM ketoprofen). Samples were centrifuged at 3,220 g for 40 minutes. Aliquot of 90 μL of the supernatant was mixed with 90 μL of ultra-pure H2O and then was used for LC-MS/MS analysis.
(§6) LC/MS analysis was performed for all samples from this study using a Shimadzu liquid chromatograph separation system equipped with degasser DGU-20A5R; solvent delivery unit LC-30AD; system controller SIL-30AC; column oven CTO-30A; CTC Analytics HTC PAL System. Mass spectrometric analysis was performed using an Triple Quad™ 5500 instrument.
(§7) All calculations were carried out using Microsoft Excel. Peak area ratios of test compound to internal standard (listed in the below table) were determined from extracted ion chromatograms.
(§8) All calculations were carried out using Microsoft Excel. Peak areas were determined from extracted ion chromatograms. The slope value, k, was determined by linear regression of the natural logarithm of the remaining percentage of the parent drug vs. incubation time curve.
(§9) The in vitro half-life (in vitro t1/2) was determined from the slope value:
(§10) Conversion of the in vitro t1/2(min) into the in vitro intrinsic clearance (in vitro CLint, in μL/min/mg proteins) was done using the following equation (mean of duplicate determinations): […]

[3] = Liver microsomes stability, human; details: for Remaining Percentage (%): Human
Protocol: as §1, §2, §3, §4, §5, §6, §7, §8, §9, §10

[4] = system: Sprague-Dawley rats; assay: Drug discrimination in the rat (5-MeO-DMT cue); assay type: in vivo; details: for ED50: Rattus norvegicus, read-out: ED50, generalization to the 5-MeO-DMT cue; for dose required to show generalization to the 5-MeO-DMT cue: oral administration
Protocol: Male Sprague-Dawley rats were initially food restricted by presentation of 18-20 g food at day end (single housing). After 7 days acclimatisation to the food restriction procedure, they were trained daily to lever press for food (45 mg Bioserve pellet) in standard 2-lever operant conditioning chambers controlled by Med-PC software over a period of 1 week (Med. Associates Ins., St. Albans, VT). The rats were trained to lever press for food to an FR10 value (i.e 10 lever presses for a single food reward). Once stable food responding was acquired to both response levers, discrimination training began. […] Training sessions lasted 30-min or until the delivery of 50 pellets and continued until the animals attained appropriate stimulus control (defined as six consecutive sessions where animals made no more than 16 lever presses before the delivery of the first reward, and at least 95% total responses on the appropriate lever). The rats continued to receive daily food ration in their home cage at day end.
Once trained, tests of substitution were conducted. […] Test sessions continued until 50 pellets had been obtained or 30 min had elapsed. During these sessions response rate was also measured.

[5] = system: mice; assay: Mouse 5-HT syndrome assay; assay type: in vivo; details: for signs of 5-HT syndrome: doses of up to 30 mg/kg
Protocol: (§11) The effect of different doses of representative compounds of Formula I were evaluated on head-twitch response (HTR) and other behavioural responses indicative of serotonin syndrome as behavior-based models of psychedelic activity.

[6] = system: C57BL/6J mice; assay: Mouse head twitch; assay type: in vivo; details: mouse; for head twitch response: doses of up to 30 mg/kg; for duration of HT expression: at 10-30 mg/kg
Protocol: as §11
Male, C57BL/6J mice (body weight range 20-30 g) were dosed with the appropriate dose of test article, and following a 1-minute pre-treatment time, placed in individual observation chambers. Animals were visually assessed for the incidence head twitches continuously over a 1 hr period. Head twitches were defined as a rapid jerk of the head which was not elicited by an external tactile stimulus (Come and Pickering, Psychopharmacologia, 1967, 11(1): 65-78). Each head twitch was individually counted by a trained observer, and the data expressed as the mean+SEM of 6-10 mice per group. Mice were used in a single experiment only.

[7] = Liver microsomes stability, dog; details: for Remaining Percentage (%): Dog
[8] = Liver microsomes stability, rat; details: for Remaining Percentage (%): Rat
Protocol: as §1, §2, §3, §4, §5, §6, §7, §8, §9, §10

[9] = system: mice; assay: Mouse locomotor activity and rearing assay; details: 1-30 mg/kg, compared with 5-MeO-DMT

[2H]C([2H])(c1cn(C(=O)CCCCCCC/C=C\C/C=C\CCCCC)c2ccccc12)[C@H]1CCCN1C([2H])([2H])[2H] [Compound I-2, (9Z,12Z)-1-(3-(((R)-1-(Methyl-d3)pyrrolidin-2-yl)methyl-d2)-1H-indol-1-yl)octadeca-9,12-dien-1-one]
IC50 [1]: < 2000 nM | Predicted hepatic CL ([2]; Mouse liver microsomes): 50.97 mL/min/kg | Remaining Percentage (%) ([2]; With NADPH, 0 min): 100.00% | Remaining Percentage (%) ([2]; With NADPH, 30 min): 71.53% | Remaining Percentage (%) ([2]; With NADPH, 60 min): 44.66% | Remaining Percentage (%) ([2]; Without NADPH, 0 min): 100.00% | Remaining Percentage (%) ([2]; Without NADPH, 30 min): 95.81% | Remaining Percentage (%) ([2]; Without NADPH, 60 min): 80.93% | CLint scaled at 2 μM ([2]; male, mouse, microsomes): 118 mL/min/kg | half-life at 2 μM ([2]; male, mouse, microsomes): 51.6 min | microsomal CLint at 2 μM ([2]; male, mouse, microsomes): 26.9 µL/min/mg | Predicted hepatic CL ([3]; Human liver microsomes): 5.79 mL/min/kg | Remaining Percentage (%) ([3]; With NADPH, 0 min): 100.00% | Remaining Percentage (%) ([3]; With NADPH, 30 min): 87.61% | Remaining Percentage (%) ([3]; With NADPH, 60 min): 82.52% | Remaining Percentage (%) ([3]; Without NADPH, 0 min): 100.00% | Remaining Percentage (%) ([3]; Without NADPH, 30 min): 114.91% | Remaining Percentage (%) ([3]; Without NADPH, 60 min): 83.75% | CLint scaled at 2 μM ([3]; human, microsomes): 8.03 mL/min/kg | half-life at 2 μM ([3]; human, microsomes): 216 min | microsomal CLint at 2 μM ([3]; human, microsomes): 6.4 µL/min/mg | ED50 [4]: ~30 mg/kg | level of partial generalization to the 5-MeO-DMT cue ([4]; rats trained to 1 mg/kg 5-MeO-DMT vs saline, FIG. 7): ~60% | signs of 5-HT syndrome [5]: no signs of 5-HT syndrome | head twitch response [6]: robust head twitch response | Predicted hepatic CL ([7]; Dog liver microsomes): 22.14 mL/min/kg | Remaining Percentage (%) ([7]; With NADPH, 0 min): 100.00% | Remaining Percentage (%) ([7]; With NADPH, 30 min): 66.91% | Remaining Percentage (%) ([7]; With NADPH, 60 min): 39.08% | Remaining Percentage (%) ([7]; Without NADPH, 0 min): 100.00% | Remaining Percentage (%) ([7]; Without NADPH, 30 min): 94.42% | Remaining Percentage (%) ([7]; Without NADPH, 60 min): 91.63% | CLint scaled at 2 μM ([7]; dog, microsomes): 78.1 mL/min/kg | half-life at 2 μM ([7]; dog, microsomes): 44.3 min | microsomal CLint at 2 μM ([7]; dog, microsomes): 31.3 µL/min/mg | Predicted hepatic CL ([8]; Rat liver microsomes): 27.34 mL/min/kg | Remaining Percentage (%) ([8]; With NADPH, 0 min): 100.00% | Remaining Percentage (%) ([8]; With NADPH, 30 min): 56.08% | Remaining Percentage (%) ([8]; With NADPH, 60 min): 40.37% | Remaining Percentage (%) ([8]; Without NADPH, 0 min): 100.00% | Remaining Percentage (%) ([8]; Without NADPH, 30 min): 94.64% | Remaining Percentage (%) ([8]; Without NADPH, 60 min): 84.47% | CLint scaled at 2 μM ([8]; rat, microsomes): 54.2 mL/min/kg | half-life at 2 μM ([8]; rat, microsomes): 45.8 min | microsomal CLint at 2 μM ([8]; rat, microsomes): 30.2 µL/min/mg

[2H]C([2H])(c1cn(C(=O)CCCCCCC/C=C\C/C=C\CCCCC)c2ccc(OC)cc12)[C@H]1CCCN1C([2H])([2H])[2H] [Compound I-3, (9Z,12Z)-1-(5-Methoxy-3-(((R)-1-(methyl-d3)pyrrolidin-2-yl)methyl-d2)-1H-indol-1-yl)octadeca-9,12-dien-1-one]
IC50 [1]: < 2000 nM | ED50 ([4]; SC administration, FIG. 8): ~6 mg/kg | dose required to show generalization to the 5-MeO-DMT cue ([4]; FIG. 8): 100 mg/kg | signs of 5-HT syndrome [5]: no signs of 5-HT syndrome | head twitch response [6]: robust head twitch response

CCCCC/C=C\C/C=C\CCCCCCCC(=O)n1cc(CCN(C)C)c2cc(OC)ccc21 [Compound I-1, (9Z,12Z)-1-(3-(2-(Dimethylamino)ethyl)-5-methoxy-1H-indol-1-yl)octadeca-9,12-dien-1-one]
motor activity or rearing [9]: did not reduce motor activity or rearing to the same extent as 5-MeO-DMT | IC50 [1]: < 2000 nM | signs of 5-HT syndrome (whole body twitches, FPT, Straub tail) ([5]; up to 60 mg/kg SC): did not induce signs of 5-HT syndrome | head twitch response expression ([6]; 1-60 mg/kg SC): robust head twitch response | ED50 ([6]; SC, read-out: ED50, head twitch response): 2.8 mg/kg | duration of HT expression [6]: 0 to 30 min

COc1ccc2[nH]cc(CCN(C)C)c2c1 [Compound 5-MeO-DMT, 5-methoxy-dimethoxytryptamine, reference compound]
ED50, generalization to the 5-MeO-DMT cue ([4]; SC administration, FIG. 8): ~0.2 mg/kg | dose required to show generalization to the 5-MeO-DMT cue ([4]; FIG. 8): 10 mg/kg | ED50, head twitch response ([6]; SC): 8 mg/kg | duration of HT expression [6]: 0 to 20 min
